Source: US8673981B2, “Phenylcyclobutylamide derivatives and their stereoisomers, the preparation processes and uses thereof” (priority 2008, dated 2014)
“Also recorded” adds a separate entry of the source.

How the values were obtained:
[1] = test system: obese rat model; assay: Weight-reducing pharmacodynamics study in the obese animal model (nutrient feed, 30 days); assay type: in vivo, Sprague Dawley rats; set-up: Average fat weight coefficient: unit not given here; conditions: for Average added multiplier of body weight: (final - initial)/initial average body weight; for Average fat weight coefficient: average fat weight/final average body weight; for Average fat weight: intraperitoneal and perirenal fat; for Final average body weight: rats on nutrient feed
Excerpt: The experimental Study of Weight-Reducing on Pharmacodynamics
Same numbers of male and female weanling Sprague Dawley rats (clean grade, 43.3±8.5 g) were obtained from Laboratory Animal Center (Chongqing medical university, China) (Certificate of Approval for Environmental Facilities: SYXK (Yu) 20020007; Certificate of Approval for animal: SCXK (Yu) 20020001). 1.2 Medicine and Preparation: racemic compound hydrochloride of example 7, optical isomers of examples 8, 9, 10 and 11, and positive control Sibutramine Hydrochloride were dissolved in 1% CMC-Na. 1.3 Test Instrument: TGL-16 table model high speed centrifuge (Shanghai Medical Instruments Factory NO. 6); KDC centrifuge (Huicheng Radio Factory, Guangzhou); Sartorius electronic balance (GERMANY); Medical refrigerator temperature (SANYO, JAPAN); thermostat water bath tank (Beijing Xicheng district medical apparatus factory); VXH-3 Mini Vortex Mixer (Shanghai Yuejin Medical Apparatus Facotry). 1.4 Nutrition Feed: the recipe of nutrition feed and basal feed are as follows:
Barley flour 20%, dehydrated vegetable 10%, bean flour 20%, corn flour 16%, yeast 1%, wheat bran 16%, fish meal 10%, bone meal 5%, salt 2%.
In the 100 g basal feed, milk powder 10 g, lard 10 g, egg 1 piece, fresh bean sprouts 250 g, oleum jecoris piscis concentratum 10 drops (including VA 1700 u, VD1700 u) were added.
2.1 Establishment and Grouping of Obese Animal Model
Weanling SD rats were randomly allocated to compound groups with large, middle, small dosages; positive control Sibutramine Hydrochloride groups with large, middle, small dosages; and obese animal model group and blank control group (n=5/group for male; n=5/group for female).
The experimental animals in blank control group were feed with normal feed, and animals in other groups were feed with nutrient feed. All animals have abundant feed for 24 h and can eat casually.
Experimental animals in each group were administrated with corresponding drugs once a day at 9 am for 30 days, with a dosage of 1 ml/100 g body weight. The dosage corresponds to clinical dosage of 10 mg/person/day for Sibutramine, which is transformed according to the equivalent dosage between human and rat. Large dosage group adopts 1.2 mg/kg; middle dosage group adopts 0.6 mg/kg, and small dosage group adopts 0.3 mg/kg. Obese animal model group: […] of 1% CMC-Na solution; blank control group: […] of 1% CMC-Na solution.
Measurements were taken of daily body weight; general status; hair; eye, mouth and nose secretions; feces, urinate and activities.
Intraperitoneal and perirenal fat were weighted, and the fat weight coefficient was calculated by body weight.

[2] = background statement; cited from earlier work
[3] = large dosage 1.2 mg/kg once a day for 30 days
[4] = middle dosage 0.6 mg/kg once a day for 30 days
[5] = small dosage 0.3 mg/kg once a day for 30 days

Structure (SMILES)	Average added multiplier of body weight [1, 3]	Average fat weight coefficient [1, 3]	Average fat weight [1, 3] [g]	Final average body weight [1, 3] [g]	Average added multiplier of body weight [1, 4]	Average fat weight coefficient [1, 4]	Average fat weight [1, 4] [g]	Final average body weight [1, 4] [g]	Average added multiplier of body weight [1, 5]	Average fat weight coefficient [1, 5]	Average fat weight [1, 5] [g]	Final average body weight [1, 5] [g]	Reduction of basal weight [2]	Decrease of body weight compared with Sibutramine ([1]; obese rats, 30 days)	Effect of decreasing fat weight ([1]; obese rats, 30 days, among treatment groups and versus Sibutramine, hydrochloride)
CC(C)CC(N(C)C)C1(c2ccc(Cl)cc2)CCC1.Cl.O (stereo not drawn) [Sibutramine, 1-(4-chlorophenyl)-N,N-dimethyl-α-(2-methylpropyl)cyclobutanemethanamine hydrochloride monohydrate, reference compound]	2.9	1.1	1.9	165.7	3.2	1.0	1.8	183.2	3.4	1.0	1.9	185.7	5%-10%	–	–
CC[C@H](C)[C@H](N)C(=O)N[C@@H](CC(C)C)C1(c2ccc(Cl)cc2)CCC1.Cl [Example 8, (2S,3S)-2-amino-N-{(S)-1-[1-(4-chlorophenyl)cyclobutyl]-3-methylbutyl}-3-methylvaleramide hydrochloride]	3.0	1.0	1.7	175.2	3.2	1.0	1.9	185.6	3.4	1.1	2.0	188.9	–	–	–
CCC(C)C(N)C(=O)NC(CC(C)C)C1(c2ccc(Cl)cc2)CCC1.Cl (racemic) [Example 7, 2-amino-N-{1-[1-(4-chlorophenyl)cyclobutyl]-3-methylbutyl}-3-methylvaleramide hydrochloride]	3.2	1.1	2.0	176.2	3.3	1.2	2.1	180.5	3.3	1.2	2.2	186.9	–	–	–
CC[C@@H](C)[C@@H](N)C(=O)N[C@@H](CC(C)C)C1(c2ccc(Cl)cc2)CCC1.Cl [Example 10, (2R,3R)-2-amino-N-{(S)-1-[1-(4-chlorophenyl)cyclobutyl]-3-methylbutyl}-3-methylvaleramide hydrochloride]	3.0	1.1	1.9	173.9	3.2	1.2	2.0	180.4	3.2	1.2	2.1	185.0	–	–	–
CC[C@@H](C)[C@@H](N)C(=O)N[C@H](CC(C)C)C1(c2ccc(Cl)cc2)CCC1.Cl [Example 11, (2R,3R)-2-amino-N-{(R)-1-[1-(4-chlorophenyl)cyclobutyl]-3-methylbutyl}-3-methylvaleramide hydrochloride]	2.8	1.1	1.8	162.4	3.0	1.1	1.9	173.2	3.2	1.2	2.1	181.0	–	–	–
CC[C@H](C)[C@H](N)C(=O)N[C@H](CC(C)C)C1(c2ccc(Cl)cc2)CCC1.Cl [Example 9, (2S,3S)-2-amino-N-{(R)-1-[1-(4-chlorophenyl)cyclobutyl]-3-methylbutyl}-3-methylvaleramide hydrochloride]	2.6	0.9	1.4	156.1	2.7	0.9	1.5	167.9	2.8	0.9	1.5	168.1	–	decreased the body weight evidently	the best; also recorded: significantly better effect than Sibutramine
